Like-named read-outs stand apart in the source and are kept apart here. Where no end group is shown, it is not given here.
Key:
Ramos cells [1] = format: cell-based, human
Text: (§1) Ramos (CRL-1596; American Type Culture Collection [ATCC]) is a human cell line of GC centroblast-derived BCL that was isolated from a Burkitt’s lymphoma patient, and Daudi (CCL-213; ATCC) is another human BCL cell line of Burkitt’s type. The control human cell lines of K562 (CCL-243; ATCC) and THP-1 (TIB-202; ATCC) wre originated from myelogenous and monocytic leukemia patients, respectively. NIH3T3 (CRL-1658; ATCC) is a mouse cell line of fibroblasts. […] Cells were counted on a hemocytometer (Neubauer; Marienfeld) after staining their aliquot with an equal volume of 0.4% trypan blue solution. All of the cell culture media and their supplements were purchased from Gibco (Thermo Fisher Scientific).
Stock solutions of various peptides, whose syntheses were custom ordered from GenScript via Koma Biotech in Korea, were first prepared by dissolving the lyophilized powder in PBS. Then, their aliquots were serially diluted with PBS to reach the final concentrations required for the experiments. […] To chase the effect of peptide transfection on the cellular proliferation, cells were counted daily on a hemocytometer by staining their aliquot with an equal volume of 0.4% trypan blue solution and finally harvested to analyze the effects of transfected peptide on various molecular events such as protein localization, transcription factor binding, gene expression, and rRNA production. […]

Ramos cells [2] = format: cell-based, human; settings: control peptides added directly to culture media without sodium pyruvate (Figure 6A)
Text: as §1

Daudi cells = format: cell-based, human; settings: control peptides added directly to culture media without sodium pyruvate (Figure 6B)
Text: as §1

[3] = test system: Ramos, Daudi, K562 and THP-1 cells
Description: (§2) For a 2-mL culture of cells in each well of a 6-well plate, 7 μL peptide solution in a concentration of 10 μg/μL in PBS was added directly to the culture media, which were RPMI-1640 supplemented with fetal bovine serum (10%), L-glutamine (1×), nonessential amino acids (1×), penicillin/streptomycin (1×), and 2-mercaptoethanol (50 μM), but not sodium pyruvate. The intrinsic cell membrane permeability of peptide with its N-terminally conjugated FAM fluorophore was checked by observing the peptide-treated cells in a confocal fluorescence microscope (Zeiss) after mounting the washed cells on a microscope slide with a cover glass. It was important that the treated cells be washed well, for example, five times with warm PBS-T (0.01% Tween 20) to remove any nonspecifically adsorbed FAM fluorophore-conjugated peptides. Various custom-ordered peptides with or without the conjugated FAM fluorophore to be used for this direct addition to the cells in culture media as well as for their intravenous injection to the xenografted nude mice as described below were prepared as mentioned above.

[4] = test system: Ramos, Daudi, K562 and THP-1 cells; test: Intrinsic cell membrane permeability of FAM-conjugated peptides added directly to culture media (confocal fluorescence microscopy); settings: for intrinsic cell membrane permeability: FAM fluorophore-labeled peptides added directly to Ramos, Daudi, K562 and THP-1 cells in culture media, cells washed with PBS-T, confocal fluorescence (Figure 6); for cell membrane permeability: N-terminally FAM-conjugated peptide added directly to culture media, confocal fluorescence (Figure 5A)
Description: as §2

Molecule | proliferation of Crlz-1+ Ramos cells inhibited (Ramos cells [2]) | proliferation of Crlz-1+ Daudi cells inhibited (Daudi cells) | intrinsic cell membrane permeability [3] | intrinsic cell membrane permeability [4] | cell membrane permeability ([4]; absence of sodium pyruvate) | further results
O=C([O-])CCN1C(=O)/C(=C/c2ccc(-c3ccc([N+](=O)[O-])cc3)o2)SC1=S.[K+] [KYA1797K] | – | – | – | – | – | saturation concentration for cell growth inhibition (Ramos cells [1]; titration in Xfect transfection/treatment of Ramos cells, in the absence of any cell death (Figures 2D, 2E)): 5.5 µg/mL
ADEAIT | not | not | no such intrinsic cell membrane permeability | – | – | –
AKRAIT [AKRAIT] | – | – | – | intrinsic cell membrane permeabilities | intrinsically membrane permeable | death of transfected cells (Ramos cells [1]): not observed
AVGAGT [AVGAGT] | – | – | – | intrinsic cell membrane permeabilities | permeable through the membrane regardless of sodium pyruvate | cell membrane permeability ([4]; presence of sodium pyruvate): permeable through the membrane regardless of sodium pyruvate
TIARKA | not | not | intrinsic cell membrane permeabilities | – | – | –
